According to PMC12069340 (Frontiers in Cellular and Infection Microbiology, 2025):
Structures can show the parent of a compound that is named as a salt. Where two headings read alike, the source gives them in different places.

Tests used:
[1] = tested on: A/PuertoRico/8/1934 (H1N1) virus; assay: microbe, parasite or virus in culture; assay type: cell-based, influenza A virus
[2] = tested on: U937 cells; details: 20 µM
[3] = in vitro; details: human, Relative Viability (%)
[4] = Influenza A virus, H1N1, U-937, 48 h, read-out: NA Inhibition (%)
[5] = Influenza A virus, H1N1, U-937, 48 h; read-out: NA Inhibition (%)

Compound | NA Inhibition (%) ([1]; 20 µM) | Relative Viability (%) [2] [%] | inhibition at 20 µM [1, 4] [%] | viability at 20 µM [3] [%] | inhibition at 20 µM [1, 5] [%]
Naftopidil DiHCl | 6.2% | 88.1 | – | – | –
Atipamezole hydrochloride | 58.1% | 119.4 | – | – | –
Varenicline Tartrate | 6.8% | 108.9 | – | – | –
Tetrahydrozoline HCl | 9.5% | 96.0 | – | – | –
Cyclizine 2HCl | -4.6% | 90.9 | – | – | –
CN(C)CCOC(c1ccc(Cl)cc1)c1ccccn1.O=C(O)/C=C\C(=O)O (stereo not shown) [ArbinoxaMine Maleate] | 29.8% | 94.3 | – | – | –
C[C@](N)(Cc1ccc(O)c(O)c1)C(=O)O [Methyldopa] | – | – | -13.4 | 104 | –
C[N+]1(C)CCC(=C(c2ccccc2)c2ccccc2)CC1 [Diphemanil Methylsulfate] | – | – | – | 98.2 | -0.6
CCC1(c2cnc[nH]2)Cc2ccccc2C1 [Atipamezole] | – | – | 38.2 | 118 | –
COc1ccc(C(CN(C)C)C2(O)CCCCC2)cc1 (stereo not shown) [Venlafaxine] | – | – | – | 93.2 | -1.3
O=C1CC[C@@]2(O)[C@H]3Cc4ccc(O)c5c4[C@@]2(CCN3CC2CC2)[C@H]1O5 [Naltrexone HCl] | – | – | 10.1 | 107 | –
COc1cc2nc(N3CCN(C(=O)C4CCCO4)CC3)nc(N)c2cc1OC (stereo not shown) [Terazosin] | – | – | – | 87.8 | -47.2
CCN1CCC[C@H]1CNC(=O)c1cc(S(N)(=O)=O)ccc1OC [Levosulpiride] | – | – | – | 104 | 2.8
CN(C)C(=O)C(CCN1CCC(O)(c2ccc(Cl)cc2)CC1)(c1ccccc1)c1ccccc1 [Loperamide HCl] | – | – | 23.2 | 116 | –
CCN(C)C(=O)Oc1cccc([C@H](C)N(C)C)c1 [Rivastigmine Tartrate] | – | – | – | 116 | -0.2
C[N+](C)(C)CCCCCC[N+](C)(C)C [Hexamethonium Bromide] | – | – | – | 104 | -10.2
COc1ccc2cccc(CCNC(C)=O)c2c1 [Agomelatine] | – | – | – | 89.1 | 18.4
CCN(CC)CC#CCOC(=O)C(O)(c1ccccc1)C1CCCCC1 (stereo not shown) [Oxybutynin] | – | – | -3.6 | 104 | –
NCCc1c[nH]cn1 [Histamine Phosphate] | -2.9 | – | – | 98.9 | –
CC(C)COc1ccc(CNC(=O)N(Cc2ccc(F)cc2)C2CCN(C)CC2)cc1 [Pimavanserin] | – | – | – | 113 | 18.1
OCCOCCN1CCN(C2=Nc3ccccc3Sc3ccccc32)CC1 [Quetiapine Fumarate] | – | – | -29.1 | 104 | –
OC[C@@H](O)CN1CCN(c2ccccc2)CC1 [Levodropropizine] | – | – | – | 104 | 35.7
CN(C)CCc1c[nH]c2ccc(Cn3cncn3)cc12 [Rizatriptan Benzoate] | – | – | – | 106 | 7.7

Compound | NA Inhibition (%) ([1]; 20 µM) | Relative Viability (%) [2] [%] | inhibition at 20 µM [1, 4] [%] | viability at 20 µM [3] [%] | inhibition at 20 µM [1, 5] [%]
CNC(=C[N+](=O)[O-])NCCSCc1ccc(CN(C)C)o1 [Ranitidine] | – | – | – | 109 | -11.1
CN(C)CCN(Cc1ccccc1)c1ccccn1 [Tripelennamine HCl] | – | – | – | 105 | -0.2
Clc1ccc2nsnc2c1NC1=NCCN1 [Tizanidine HCl] | – | – | -28.3 | 78.9 | –
CC(=O)OCC[N+](C)(C)C [Acetylcholine Chloride] | – | – | – | 104 | -5.4
Cc1ccsc1C(=CCCN1CCC[C@@H](C(=O)O)C1)c1sccc1C [Tiagabine] | – | – | – | 95.7 | 14.2
CCN(Cc1ccc(Cl)nc1)/C(=C/[N+](=O)[O-])NC [Nitenpyram] | – | – | – | 110 | -32.4
CCOc1cc(N)c(Cl)cc1C(=O)NCC1CN(Cc2ccc(F)cc2)CCO1 (stereo not shown) [Mosapride Citrate] | – | – | – | 112 | 32.4
NC12CC3CC(CC(C3)C1)C2 [Amantadine HCl] | – | – | – | 110 | 69.2
COc1cc2nc(N(C)CCCNC(=O)C3CCCO3)nc(N)c2cc1OC (stereo not shown) [Alfuzosin HCl] | – | – | -12.3 | 110 | –
CN[C@H](CC(=O)O)C(=O)O [NMDA (N-Methyl-D-aspartic acid), N-Methyl-D-aspartic acid] | – | – | -15.5 | 113 | –
CC(C[N+](C)(C)C)OC(N)=O (stereo not shown) [Bethanechol chloride] | – | – | – | 103 | 2.2
CCCN[C@H]1CCc2nc(N)sc2C1 [Pramipexole dihydrochloride monohydrate] | 2.6 | – | – | 100 | –
CC(C)(C)NCC(O)c1cc(O)cc(O)c1 (stereo not shown) [Terbutaline Sulfate] | – | – | 39.1 | 101 | –
CN(C)CC(c1ccc(O)cc1)C1(O)CCCCC1 (stereo not shown) [Desvenlafaxine Succinate] | – | – | – | 98.8 | 11
N#Cc1ccccc1-c1cc(-c2ccccn2)cn(-c2ccccc2)c1=O [Perampanel] | – | – | – | 98.8 | -30.9
Cc1cccc(Cc2c[nH]cn2)c1C [Detomidine HCl] | – | – | 31.2 | 109 | –
Cc1cccc(C)c1NC(=O)CN1CCCC1=O [Nefiracetam] | – | – | – | 105 | 6
COc1ccccc1N1CCN(CC(O)COc2cccc3ccccc23)CC1 (stereo not shown) [Naftopidil] | – | – | 13.4 | 102 | –
CC(C)C(=O)Oc1ccc(CO)cc1[C@H](CCN(C(C)C)C(C)C)c1ccccc1 [Fesoterodine Fumarate] | – | – | – | 114 | -27.7
Clc1cccc(Cl)c1N=C1NCCN1 [Clonidine HCl] | – | – | -24.1 | 99.2 | –
COc1cc2nc(N3CCN(C(=O)c4ccco4)CC3)nc(N)c2cc1OC [Prazosin HCl] | – | – | – | 76.9 | -45.6
CN1[C@@H]2CC[C@H]1C[C@@H](OC(=O)c1c[nH]c3ccccc13)C2 [Tropisetron] | – | – | – | 80.9 | 55.4
CN1CCC(=C2c3ccccc3CCn3c(C=O)cnc32)CC1 [Alcaftadine] | – | – | – | 188 | -0.9

Compound | NA Inhibition (%) ([1]; 20 µM) | Relative Viability (%) [2] [%] | inhibition at 20 µM [1, 4] [%] | viability at 20 µM [3] [%] | inhibition at 20 µM [1, 5] [%]
OC(CCCN1CCCCC1)(c1ccccc1)c1ccccc1 [Diphenidol HCl] | – | – | – | 125 | 32.3
c1ccc(CC2=NCCN2)cc1 [Tolazoline HCl] | – | – | – | 86 | 14.5
COc1ccc(C[C@@H]2c3cc(OC)c(OC)cc3CC[N@+]2(C)CCC(=O)OCCCCCOC(=O)CC[N@@+]2(C)CCc3cc(OC)c(OC)cc3[C@H]2Cc2ccc(OC)c(OC)c2)cc1OC [Cisatracurium Besylate] | – | – | 27.9 | 106 | –
CCCC(=O)Nc1ccc(OCC(O)CNC(C)C)c(C(C)=O)c1 (stereo not shown) [Acebutolol HCl] | – | – | -13.9 | 106 | –
O=C(O[C@H]1CN2CCC1CC2)N1CCc2ccccc2[C@@H]1c1ccccc1 [Solifenacin succinate] | – | – | – | 102 | 22.6
N=C(N)NC(=O)Cc1c(Cl)cccc1Cl [Guanfacine Hydrochloride] | – | – | – | 102 | 11
COc1cc2c(cc1OC)[C@@H]1Cc3ccc(OC)c(OC)c3CN1CC2 [Rotundine] | – | – | – | 112 | 17.4
Cc1cccc([C@H](C)c2cnc[nH]2)c1C [Dexmedetomidine HCl (Precedex), Dexmedetomidine HCl] | -18.5% | – | – | 120 | –
CNS(=O)(=O)CCc1ccc2[nH]cc(C3CCN(C)CC3)c2c1 [Naratriptan] | – | – | – | 102 | 5.8
CCC(COC(=O)c1cc(OC)c(OC)c(OC)c1)(c1ccccc1)N(C)C (stereo not shown) [Trimebutine] | – | – | 43.7 | 108 | –
Nc1nc(CC(=O)Nc2ccc(CCNC[C@H](O)c3ccccc3)cc2)cs1 [Mirabegron] | – | – | -9.6 | 102 | –
C=CC[N+]1([C@H]2C[C@H]3[C@@H]4CC[C@H]5C[C@H](O)[C@@H](N6CCOCC6)C[C@]5(C)[C@H]4CC[C@]3(C)[C@H]2OC(C)=O)CCCC1 [Rocuronium Bromide] | – | – | – | 106 | 16.7
N#Cc1ccc2[nH]cc(CCCCN3CCN(c4ccc5oc(C(N)=O)cc5c4)CC3)c2c1 [Vilazodone HCl] | – | – | – | 98.9 | -49.6
CNCC(O)c1ccc(O)cc1 (stereo not shown) [Synephrine] | – | – | 12.3 | 90.5 | –
C[C@H](Cc1cc2c(c(C(N)=O)c1)N(CCCO)CC2)NCCOc1ccccc1OCC(F)(F)F [Silodosin] | – | – | -41.7 | 115 | –
CC(C)NCC(O)COc1ccc(CCOCC2CC2)cc1 (stereo not shown) [Betaxolol] | – | – | 6.7 | 115 | –
CN1CCN2c3ccccc3Cc3ccccc3C2C1 (stereo not shown) [Mianserin HCl] | – | – | – | 91.9 | 26.3
CC(CCc1ccccc1)NCC(O)c1ccc(O)c(C(N)=O)c1 (stereo not shown) [Labetalol HCl] | – | – | -17.2 | 101 | –
Cc1nc2n(c(=O)c1CCN1CCC(c3noc4cc(F)ccc34)CC1)CCCC2O (stereo not shown) [Paliperidone] | – | – | – | 110 | 9.3
CN(C)C(=O)Oc1cccc([N+](C)(C)C)c1 [Neostigmine Bromide] | – | – | – | 114 | 2
NC[C@H](CC(=O)O)c1ccc(Cl)cc1 [(R)-baclofen] | – | – | – | 112 | 46.4
O=C1c2c(O)cc(O)cc2O[C@H](c2cc(O)c(O)c(O)c2)[C@H]1O [Dihydromyricetin] | – | – | – | 95.3 | 9.3
